This is an account of results in paper PMC12596218 (Journal of Lipid Research, 2025).

In one series the target is T1, OATP1B1 (Homo sapiens, UniProt Q9Y6L6).
T1 construct: stably transfected with the full open reading frames of human NTCP, ASBT, SOAT, OATP1B1, OATP1B3, OATP2B1, and murine Asbt (mAsbt); expressed in transfected cells; host or cells: HEK293, stably transfected (OATP1B1-HEK), tetracycline-induced
T1 sequence (Q9Y6L6 1-691): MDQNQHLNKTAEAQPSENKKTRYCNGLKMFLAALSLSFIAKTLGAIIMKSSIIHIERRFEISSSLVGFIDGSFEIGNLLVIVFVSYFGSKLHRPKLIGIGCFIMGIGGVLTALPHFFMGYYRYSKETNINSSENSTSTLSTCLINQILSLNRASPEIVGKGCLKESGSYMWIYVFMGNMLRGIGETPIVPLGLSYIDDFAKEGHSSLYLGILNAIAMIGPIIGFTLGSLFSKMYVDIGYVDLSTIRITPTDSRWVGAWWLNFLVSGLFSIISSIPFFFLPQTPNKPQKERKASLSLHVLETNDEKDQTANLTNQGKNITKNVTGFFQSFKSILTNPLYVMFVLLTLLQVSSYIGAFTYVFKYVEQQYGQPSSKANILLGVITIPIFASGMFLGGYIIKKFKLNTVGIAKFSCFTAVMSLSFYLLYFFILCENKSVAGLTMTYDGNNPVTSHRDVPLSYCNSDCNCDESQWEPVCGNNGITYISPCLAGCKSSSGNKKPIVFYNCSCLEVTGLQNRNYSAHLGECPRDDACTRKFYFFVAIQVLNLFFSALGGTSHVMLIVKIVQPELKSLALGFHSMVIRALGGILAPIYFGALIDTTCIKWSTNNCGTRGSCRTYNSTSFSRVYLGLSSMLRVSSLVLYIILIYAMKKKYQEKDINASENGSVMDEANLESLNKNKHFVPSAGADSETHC
The series can be described thus: [3H]E1S transport inhibition assay in OATP1B1-HEK293 cells. It counts as cell-based. The following applies: 200 nM [3H]E1S, 10 min; two independent experiments. From the text:
(§1) Human embryonic kidney HEK293 cells, stably transfected with the full open reading frames of human NTCP, ASBT, SOAT, OATP1B1, OATP1B3, OATP2B1, and murine Asbt (mAsbt) were used as reported ([18], [20], [21], [22], [23]). The NTCP, ASBT, and mAsbt constructs were C-terminally tagged with the FLAG epitope, and the SOAT construct was C-terminally tagged with green fluorescent protein. Non-transfected Flp-In HEK293 cells (Thermo Fisher Scientific) served as the control. All cell lines were maintained at 37°C, 5% CO2 and 95% humidity in DMEM/F-12 medium (Thermo Fisher Scientific) supplemented with 10% fetal calf serum (Sigma-Aldrich), 4 mM L-glutamine (PAA) and penicillin/streptomycin (PAA). Expression of the respective carrier protein was induced by tetracycline treatment at 1 μg/ml (Carl Roth GmbH + Co. KG).
Cells were seeded onto poly-L-lysine-coated 96-well plates, induced with 1 μg/ml tetracycline, and grown to confluence over 72 h at 37°C. Then, cells were washed with tempered (37°C) phosphate-buffered saline (PBS, containing 137.0 mM NaCl, 2.7 mM KCl, 1.5 mM KH2PO4, and 7.3 mM Na2HPO4, at pH 7.4) and preincubated with 80 μl sodium transport buffer (STB, containing 142.9 mM NaCl, 4.7 mM KCl, 1.2 mM MgSO4, 1.2 mM KH2PO4, 1.8 mM CaCl2, and 20.0 mM HEPES, at pH 7.4) for 5 min at 37°C. For inhibition studies, the medium was replaced by 80 μl STB containing the respective inhibitor or solvent alone and cells were further incubated for 5 min at 37°C. Transport experiments were started by adding 20 μl of a 5-fold concentrated substrate solution (solved in STB). For transport experiments under sodium-free conditions the same buffer composition was used as for STB, but sodium chloride was substituted with equimolar concentrations of choline chloride as previously reported ([20], [24]). Transport experiments were stopped by washing twice with ice-cold PBS and the plates were kept cool on ice until adding the lysis buffer [1% sodium dodecyl sulfate (SDS) and 1 N NaOH]. Then, the cell-associated radioactivity of the respective tritium-labeled substrate or ligand was quantified by liquid scintillation counting using MicroScint-20 scintillation cocktail (Revvity) in a Packard Microplate Scintillation Counter TopCount NXT (Packard Instrument Company). For IC50 transport inhibition measurements, the mean uptake values measured in non-carrier-expressing HEK293 control cells were defined as 0% uptake control and were subtracted from all other values. Values from cells without inhibitor and solvent alone were set to 100%. Finally, all net transport data were expressed as uptake or binding as % of control. All transport or inhibition graphs were generated with GraphPad Prism 6 (GraphPad). Determination of half maximal inhibitory concentrations (IC50) was done by nonlinear regression analysis using the equation log (inhibitor) versus response—variable slope settings. All data points of the IC50 curves represent means ± SD of quadruplicate determinations. For Km measurements, BS uptake in the absence of sodium was regarded as carrier-independent unspecific uptake and was subtracted from the transport rates in the presence of sodium to obtain carrier-specific uptake rates (indicated as dashed lines). From the specific uptake rates, Michaelis Menten Km values were calculated by non-linear regression analysis.

Series [1] addresses T2, NTCP (Homo sapiens, UniProt Q14973).
T2 construct: stably transfected with the full open reading frames of human NTCP, ASBT, SOAT, OATP1B1, OATP1B3, OATP2B1, and murine Asbt (mAsbt); expressed in transfected cells; host or cells: HEK293 (Flp-In), stably transfected, tetracycline-induced
T2 sequence (Q14973 1-349): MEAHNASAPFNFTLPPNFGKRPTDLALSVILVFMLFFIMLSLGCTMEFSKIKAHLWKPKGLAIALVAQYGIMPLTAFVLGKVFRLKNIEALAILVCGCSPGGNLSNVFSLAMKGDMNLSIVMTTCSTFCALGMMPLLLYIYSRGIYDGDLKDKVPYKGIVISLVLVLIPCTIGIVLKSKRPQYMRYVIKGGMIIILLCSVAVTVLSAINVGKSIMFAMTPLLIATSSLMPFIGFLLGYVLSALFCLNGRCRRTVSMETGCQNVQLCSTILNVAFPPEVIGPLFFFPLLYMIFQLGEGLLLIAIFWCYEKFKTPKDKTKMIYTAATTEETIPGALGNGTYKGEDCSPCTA
The series can be described thus: [3H]rosuvastatin transport inhibition assay in NTCP-HEK293 cells. The following applies: 1 μM [3H]rosuvastatin, 10 min; two independent experiments; read-out: IC50 NTCP [3H]rosuvastatin uptake. It counts as cell-based.
Description: as §1, with “Expression of the respective carrier protein was induced by tetracycline treatment at 1 μg/ml (Carl Roth GmbH + Co. KG).” left out
(§2) Cells were seeded onto poly-L-lysine-coated 96-well plates, induced with 1 μg/ml tetracycline, and grown to confluence over 72 h at 37°C. […] Then, the cell-associated radioactivity of the respective tritium-labeled substrate or ligand was quantified by liquid scintillation counting using MicroScint-20 scintillation cocktail (Revvity) in a Packard Microplate Scintillation Counter TopCount NXT (Packard Instrument Company). […] Finally, all net transport data were expressed as uptake or binding as % of control. […] From the specific uptake rates, Michaelis Menten Km values were calculated by non-linear regression analysis.

The target in series [2] is T2, NTCP. The series can be described thus: [3H]preS1 peptide binding to NTCP-HEK293 cells. The following applies: 5 nM [3H]preS1; two independent experiments.
Description: as §1, with “Expression of the respective carrier protein was induced by tetracycline treatment at 1 μg/ml (Carl Roth GmbH + Co. KG).” left out
as §2

Series [3] deals with NTCP. The following applies: cited from earlier work.
Series [4] concerns the target T2, NTCP. Nature of the series: [3H]DHEAS transport inhibition assay in NTCP-HEK293 cells. It counts as cell-based. The following applies: 1 μM [3H]DHEAS, 10 min; two independent experiments; read-out: IC50 NTCP [3H]DHEAS uptake.
Description: as §1, with “Expression of the respective carrier protein was induced by tetracycline treatment at 1 μg/ml (Carl Roth GmbH + Co. KG).” left out
as §2

A further series relates to OATP2B1. The following applies: cited from earlier work.

Several values for one entry are separate records, joined by “and”; a condition that tells them apart may be missing. Equal entries are not always repeated.

For the compound `CCCCC1(CCCC)CS(=O)(=O)c2ccc(N(C)C)cc2[C@@H](c2ccc(OCCCC[N+]34CCN(CC3)CC4)cc2)[C@H]1O` [SC-435], the IC50 at OATP1B1 is > 10 µM and 41.3 µM and 30.7 µM.
Regarding `CCCCC1(CCCC)CN(c2ccccc2)c2cc(SC)c(OCC(=O)N[C@@H](C(=O)NCC(=O)O)c3ccccc3)cc2S(=O)(=O)C1` [elobixibat], the IC50 on NTCP [1] is 19.2 µM and 11.9 µM; on NTCP [2], 147 µM and 36 µM; on OATP1B1, 4.5 µM and 4.4 µM; in the series on NTCP [3] (ref PMDA Goofice Report on the Deliberation Results, read-out: IC50 NTCP inhibition), 0.24 µM; on NTCP [4], 11.7 µM and 11.1 µM.
With `CCCC[C@]1(CC)CS(=O)(=O)c2cc(CNC(CC(=O)O)CC(=O)O)c(OC)cc2[C@@H](c2ccccc2)N1` [linerixibat], in the series on OATP2B1, the “Substrate of OATP2B1” value is “is not a substrate”. In addition, at OATP1B1, the IC50 was > 10 µM and 29.1 µM and 12 µM.
In the case of `CCCCC1(CCCC)CS(=O)(=O)c2ccc(N(C)C)cc2[C@@H](c2ccc(OCc3ccc(C[N+]45CCN(CC4)CC5)cc3)cc2)[C@H]1O` [maralixibat], in the series on OATP2B1 (in vitro studies, ref EMA EPAR Product Information Maralixibat), the “OATP2B1 inhibition (in words)” value was “Maralixibat is an OATP2B1 inhibitor based on in vitro studies. No potential for clinically relevant drug-drug interactions (DDI), but theoretical risk of interaction with substrates of this carrier”. Besides, the IC50 was 1.02 µM in the series with OATP2B1 (in vitro, ref FDA NDA 214662 Livmarli, read-out: IC50 OATP2B1 inhibition); 9 µM and 8.3 µM on OATP1B1. Also, the “Inhibition of NTCP” value in the series on NTCP [3] (50 μM, NTCP expressed in CHO cells, ref FDA NDA 214662 Livmarli) is given as “Maralixibat at 50 μM produced 5% inhibition of NTCP expressed in CHO cells”.
`CCCCC1(CCCC)CN(c2ccccc2)c2cc(SC)c(OCC(=O)N[C@@H](C(=O)N[C@@H](CC)C(=O)O)c3ccc(O)cc3)cc2S(=O)(=O)N1` [odevixibat]: the IC50 at NTCP [1] is 6.6 µM and 5.4 µM; on NTCP [2], 144 µM and 15.9 µM; at OATP1B1, 4 µM and 1.6 µM; on NTCP [4], 8.7 µM and 5.5 µM.

By IC50 is commonly meant the concentration needed to halve the response being measured.
